Laboratory results: US20170066717A1, “NEW PHENYLAZETIDINECARBOXYLATE OR -CARBOXAMIDE COMPOUNDS” (INVENTIVA, priority 2014, published 2017)

Legend:
NURR-1/RXRγ = target: T1, NURR-1/RXRγ (Homo sapiens, UniProt P48443); experiment: Transactivation test, NURR-1-Gal4/RXRγ, luciferase reporter in Cos-7 cells; format: cell-based; details: for Emax: COS-7, induction level relative to reference XCT0135908 at 2×10^−5 M (=100%), read-out: hNurr1_RXRgFL Emax (%); for EC50: Cos-7 cells, NURR-1-Gal4/RXRγ, luciferase reporter, read-out: hNurr1_RXRgFL EC50
T1 construct: expressed in transfected cells; host or cells: Cos-7 cells
T1 sequence (P48443 whole entry, the tested form may be a part): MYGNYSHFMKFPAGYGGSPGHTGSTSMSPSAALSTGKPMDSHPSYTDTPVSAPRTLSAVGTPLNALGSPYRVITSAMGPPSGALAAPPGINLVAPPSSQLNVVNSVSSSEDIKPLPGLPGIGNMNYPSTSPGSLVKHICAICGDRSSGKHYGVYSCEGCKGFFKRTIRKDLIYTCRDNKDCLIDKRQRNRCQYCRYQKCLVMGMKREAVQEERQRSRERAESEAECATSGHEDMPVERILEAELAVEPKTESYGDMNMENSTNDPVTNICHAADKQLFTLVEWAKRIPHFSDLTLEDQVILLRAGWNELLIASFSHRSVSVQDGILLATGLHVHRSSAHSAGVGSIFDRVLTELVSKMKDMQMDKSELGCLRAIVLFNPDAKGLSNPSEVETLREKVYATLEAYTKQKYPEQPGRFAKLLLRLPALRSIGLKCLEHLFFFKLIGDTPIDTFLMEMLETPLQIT
T1 sequence (P43354 whole entry partner, the tested form may be a part): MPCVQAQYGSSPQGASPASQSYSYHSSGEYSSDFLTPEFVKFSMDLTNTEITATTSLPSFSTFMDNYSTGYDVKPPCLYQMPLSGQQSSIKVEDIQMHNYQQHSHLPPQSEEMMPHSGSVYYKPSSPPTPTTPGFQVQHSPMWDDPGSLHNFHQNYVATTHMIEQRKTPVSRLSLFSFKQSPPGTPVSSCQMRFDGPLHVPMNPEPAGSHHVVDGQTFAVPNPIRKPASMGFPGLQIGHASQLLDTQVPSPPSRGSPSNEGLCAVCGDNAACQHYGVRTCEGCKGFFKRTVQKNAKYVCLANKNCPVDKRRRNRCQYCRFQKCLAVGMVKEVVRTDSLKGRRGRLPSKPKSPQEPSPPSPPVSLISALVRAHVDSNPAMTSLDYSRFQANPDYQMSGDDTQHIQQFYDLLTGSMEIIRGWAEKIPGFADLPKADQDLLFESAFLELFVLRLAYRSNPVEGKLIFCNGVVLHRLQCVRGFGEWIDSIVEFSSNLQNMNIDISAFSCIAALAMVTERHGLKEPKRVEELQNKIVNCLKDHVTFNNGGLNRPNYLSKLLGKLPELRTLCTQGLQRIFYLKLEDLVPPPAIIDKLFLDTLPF
T1 sequence (P04386 1-147 partner limits assumed): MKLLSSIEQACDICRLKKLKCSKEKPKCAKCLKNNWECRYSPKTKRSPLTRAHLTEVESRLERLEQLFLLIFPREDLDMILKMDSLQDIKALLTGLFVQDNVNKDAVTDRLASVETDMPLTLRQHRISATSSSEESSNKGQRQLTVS
Method: (§1) The ability of the compounds according to the invention to behave as an activator of the heterodimers formed by the NURR-1 nuclear receptor and the RXR nuclear receptors was measured by means of an in vitro test. A transactivation test was used as primary selection (screening) test. Cos-7 cells were cotransfected with a plasmid expressing a chimera of the human NURR-1-Gal4 receptor, a plasmid expressing the human RXR receptor (RXRα or RXRγ receptor) and a 5Gal4pGL3-TK-Luc reporter plasmid. The transfctions were carried out using a chemical agent (Jet PEI). The transfected cells were distributed into 384-well plates and left to stand for 21 hours. At time 24 hours the culture medium was changed. The test products were added (final concentration of between 10^''4 and 3×10^-10 M) to the culture medium. After incubation overnight, the lucifeiase expression was measured after addition of SteadyGlo according to the instructions of the manufacturer (Promega). […] The induction levels (Emax) were calculated relative to the basal activity of each heterodimer.

NURR-1/RXRα = target: T2, NURR-1/RXRα (Homo sapiens, UniProt P19793); experiment: Transactivation test, NURR-1-Gal4/RXRα, luciferase reporter in Cos-7 cells; format: cell-based; details: for Emax: COS-7, induction level relative to reference XCT0135908 at 2×10^−5 M (=100%), read-out: hNurr1_RXRaFL Emax (%); for EC50: Cos-7 cells, NURR-1-Gal4/RXRα, luciferase reporter, read-out: hNurr1_RXRaFL EC50
T2 construct: expressed in transfected cells; host or cells: Cos-7 cells
T2 sequence (P19793 whole entry, the tested form may be a part): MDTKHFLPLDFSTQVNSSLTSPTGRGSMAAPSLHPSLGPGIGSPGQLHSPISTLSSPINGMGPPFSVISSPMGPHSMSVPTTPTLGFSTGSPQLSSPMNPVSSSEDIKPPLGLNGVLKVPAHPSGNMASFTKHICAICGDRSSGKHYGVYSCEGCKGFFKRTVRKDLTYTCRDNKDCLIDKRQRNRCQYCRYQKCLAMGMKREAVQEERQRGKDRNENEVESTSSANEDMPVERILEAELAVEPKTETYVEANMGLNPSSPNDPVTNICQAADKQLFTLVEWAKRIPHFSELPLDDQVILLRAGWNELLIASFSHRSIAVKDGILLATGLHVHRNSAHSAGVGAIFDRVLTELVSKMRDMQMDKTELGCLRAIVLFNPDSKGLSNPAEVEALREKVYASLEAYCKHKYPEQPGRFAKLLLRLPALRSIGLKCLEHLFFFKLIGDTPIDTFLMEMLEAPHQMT
T2 sequence (P43354 whole entry partner, the tested form may be a part): as the sequence (P43354 whole entry partner, the tested form may be a part) above
T2 sequence (P04386 1-147 partner limits assumed): as the sequence (P04386 1-147 partner limits assumed) above
Method: as §1

| Emax (NURR-1/RXRγ) [%] | EC50 (NURR-1/RXRγ) [nM] | Emax (NURR-1/RXRα) [%] | EC50 (NURR-1/RXRα) [nM] | SMILES |
| --- | --- | --- | --- | --- |
| 116 | 314 | 108 | 124 | Cc1cc(-c2cccc(N(C)C)c2)cc(N2CC(C(=O)O)C2)c1 [Example 26, 1-[3-[3-(dimethylamino)phenyl]-5-methylphenyl]azetidine-3-carboxylic acid] |
| 114 | 232 | 119 | 165 | Cc1cc(-c2cccc(Cl)c2)cc(N2CC(C(=O)O)C2)c1 [Example 27, 1-[3-[3-chlorophenyl]-5-methylpehnyl]azetidine-3-carboxylic acid] |
| 58 | 70 | 76 | 45 | Cn1cc(-c2cc(N3CC(C(=O)O)C3)cc(C(F)(F)F)c2)c2ccc(C(F)(F)F)cc21 [Example 28, 1-[3-[1-methyl-6-(trifluoromethyl)indol-3-yl]-5-(trifluoromethyl)phenyl]azetidine-3-carboxylic acid] |
| 85 |  | 78 |  | Cn1cc(-c2cc(Cl)cc(N3CC(C(=O)O)C3)c2)c2ccc(C(F)(F)F)cc21 [Example 29] |
| 97 | 42 | 102 | 14 | Cn1cc(-c2cccc(N3CC(C(=O)O)C3)c2)c2ccc(C(F)(F)F)cc21 [Example 30, 1-[3-[1-methyl-6-(trifluoromethyl)indol-3-yl]phenyl]azetidine-3-carboxylic acid] |
| 59 | 401 | 62 | 153 | CC(C)(C)c1cccc(-c2cccc(N3CC(C(=O)O)C3)c2)n1 [Example 31, 2-tert-butyl-6-[3-(3-carboxyazetidine-1-yl)phenyl]pyridiuium chlrodie] |
| 62 | > 5000 | 71 | > 5000 | O=C(O)C1CN(c2cccc(-c3ccnc(C(F)(F)F)c3)c2)C1 [Example 32, 1-[3-[2-(trifluoromethyl)-4-pyridyl]phenyl]azetidine-3-carboxylic acid] |
| 71 | > 5000 | 119 | > 5000 | Cc1nc(-c2ccccc2)oc1-c1cccc(N2CC(C(=O)O)C2)c1 [Example 33, 1-[3-(4-methyl-2-phenyl-oxazol-5-yl)phenyl]azetidine-3-carboxylic acid] |
| 64 | > 5000 | 69 | > 5000 | O=C(O)C1CN(c2cccc(-c3cncc(C(F)(F)F)c3)c2)C1 [Example 34, 1-[3-[5-(trifluoromethyl)3-pyridyl]phenyl]azetidine-3-carboxylic acid] |
| 44 | > 5000 | 45 | > 5000 | Cc1nc(C(F)(F)F)nc(-c2cccc(N3CC(C(=O)O)C3)c2)c1C [Example 35, 1-[3-[5,6-dimethyl-2-(trifloruomethyl)pyrrimidin-4-yl]phenyl]azetidine-3-carboxylic acid] |
| 121 | 1000 | 140 | 449 | O=C(O)C1CN(c2cccc(-c3ncc(Cl)c4ccccc34)c2)C1 [Example 36, 1-[3-(4-chloro-1-isoquinolyl)phenyl]azetidine-3-carboxylic acid] |
| 99 | 3820 | 62 | > 5000 | O=C(O)C1CN(c2cccc(-c3cc4ccccc4c(Cl)n3)c2)C1 [Example 37, 1-[3-(1-chloro-3-isoquinoyl)phenyl]azetidine-3-carboxylic acid] |
| 33 | > 5000 | 75 | > 5000 | O=C(O)C1CN(c2cccc(-c3cccc(C(F)(F)F)n3)c2)C1 [Example 38, 1-[3-[6-(trifluoromethyl)-2-pyridyl]phenyl]azetidine-3-carboxylic acid] |
| 110 | 472 | 104 | 208 | Cc1cc(-c2cccc(N3CC(C(=O)O)C3)c2)nc(-c2ccccc2)n1 [Example 39, 1-[3-(6-methyl-2-phenylpyrimidin-4-yl)phenyl]azetidine-3-carboxylic acid] |
| 62 | 880 | 80 | 557 | O=C(O)C1CN(c2cccc(-c3cccc(-c4ccccc4)n3)c2)C1 [Example 40, 1-[3-(6-phenyl-2-pyridyl)phenyl]azetidine-3-carboxylic acid] |
| 123 | 0.7 | 134 | 0.5 | Cc1cn(-c2cccc(N3CC(C(=O)O)C3)c2)c2ccc(C(F)(F)F)cc12 [Example 41, 1-[3-[3-methyl-5-(trifluoromethyl)indol-1-yl]phenyl]azetidine-3-carboxylic acid] |
| 67 | > 5000 | 81 | 5 | Cc1cn(-c2cc(Cl)cc(N3CC(C(=O)O)C3)c2)c2ccc(C(F)(F)F)cc12 [Example 42, 1-[3-chloroe-5-[3-methyl-5-(trifluoromethyl)indol-1-yl]phenyl]azetidine-3-carboxylic acid] |
| 90 | 9 | 84 | 6 | Cc1cn(-c2cc(N3CC(C(=O)O)C3)cc(C(F)(F)F)c2)c2ccc(C(F)(F)F)cc12 [Example 43, 1-[3-[3-methyl-5-(trifluoromethyl)indol-1-yl]-5-(trifluoromethyl)phenyl]azetidine-3-carboxylic acid] |
| 108 | 8 | 108 | 7 | O=C(O)C1CN(c2cccc(-n3ccc4cc(C(F)(F)F)ccc43)c2)C1 [Example 44, 1-[3-[5-(trifluoromethyl)indol-1-yl]phenyl]azetidine-3-carboxylic acid] |
| 107 | 3 | 96 | 2 | Cc1cc(N2CC(C(=O)O)C2)cc(-n2cc(C)c3cc(Cl)ccc32)c1 [Example 45] |
| 130 | 31 | 104 | 19 | Cc1cn(-c2cccc(N3CC(C(=O)O)C3)c2)c2ccc(C3CC3)cc12 [Example 46] |
| 95 | 542 | 91 | 368 | COc1ccc2c(ccn2-c2cc(C)cc(N3CC(C(=O)O)C3)c2)c1 [Example 47, 1-[3-(5-methoxyindol-1-yl)-5-methylphenyl]azetidine-3-carboxylic acid] |
| 129 | 123 | 96 | 37 | COc1ccc2c(c1)c(C)cn2-c1cc(C)cc(N2CC(C(=O)O)C2)c1 [Example 48, 1-[3-(5-methoxy-3-methylindol-1-yl)-5-methylphenyl]azetidine-3-carboxylic acid] |
| 114 | 1 | 99 | 1 | Cc1cc(N2CC(C(=O)O)C2)cc(-n2cc(C)c3cc(C(F)(F)F)ccc32)c1 [Example 49, 1-[3-methyl-5-[3-methyl-5-(trifluoromethyl)indol-1-yl]phenyl]azetidine-3-carboxylic acid] |
| 106 | 29 | 91 | 17 | COc1cc(N2CC(C(=O)O)C2)cc(-n2cc(C)c3cc(C(F)(F)F)ccc32)c1 [Example 51, 1-[3-methoxy-5-[3-methyl-5-(trifluoromethyl)indol-1-yl]phenyl]azetidine-3-carboxylic acid] |
